The source of these data is patent US9266817B2, “Catecholamine derivatives for obesity and neurological disorders” (EMORY UNIVERSITY, priority 2009, dated 2016).

Each structure is given as a SMILES string. “Also recorded” adds a separate entry of the source.

In series [1] the target is T1, TrkB F616A (Mus musculus, UniProt P15209, F616A).
T1 construct: endogenous in cells; host or cells: primary cortical neurons from TrkB F616A knock-in mice
In words: TrkB phosphorylation in TrkB F616A or TrkA F592A cortical neurons pretreated with K252a or 1NMPP1. It is filed as cell-based, mice. Particulars: primary TrkB F616A cortical neurons, 100 nM inhibitor 30 min, 500 nM compound. The protocol:
(§1) TrkB F616A mice were pretreated with 1NMPP1 (50 μM) before L-DOPA or DOPS administration.
(§2) On day 7, the primary cortical neurons were pretreated with 100 nM K252a or 1NMPP1 for 30 min, followed by 500 nM ADPP and DDAP. Cell lysates were analyzed by Western blotting.

The target in series [2] is T2, TrkB (Rattus norvegicus, UniProt Q63604).
T2 construct: endogenous in cells; host or cells: primary rat cortical and hippocampal neurons
Briefly: Screening of catecholamine derivatives for TrkB activation in primary cortical neurons (anti-p-TrkB-Y-816 immunoblot). It is filed as cell-based. Particulars: 500 nM, 30 min. The method, then: Catecholamines can directly bind to the kinase domain of the TrkB receptor and activate it. However, the catecholamines are not able to cross through the blood brain barrier. […] Cortical neurons (7 DIV cortical neurons from 18 day old Sprague Dawley rat embryos) were treated with 500 nM of the selected compound for 30 min and cell lysates were prepared. The cell lysates ([…]) were analyzed for TrkB activation by immunoblotting with anti-p-TrkB-Y-816 antibody.
Catecholamine derivatives as described herein, including Compound I-2, Compound I-5, Compound I-7, Compound I-8, Compound I-9, Compound I-10, Compound I-11, Compound I-14, Compound I-15, Compound I-17, Compound I-18, and isoproterenol, were screened for TrkB activation in primary cortical neurons. Cortical neurons (7 DIV cortical neurons from 18 day old Sprague Dawley rat embryos) were treated with 500 nM of the selected compound for 30 min and cell lysates were prepared. The cell lysates ([…]) were analyzed for TrkB activation by immunoblotting with anti-p-TrkB-Y-816 antibody.
Background: In western blotting, separated proteins are transferred to a membrane and probed.

The subject of series [3] is TrkB. Briefly: TrkB activation in mouse brain after administration of catecholamine derivatives (anti-p-TrkB-Y-816 immunoblot). Particulars: for Time at which TrkB activity peaked: 50 mg/kg orally; for TrkB activation in the brains of the mice: 50 mg/kg orally (in saline), C57BL/6J mice; for Oral bioavailability: mice; for Minimal dosage required to activate TrkB: orally, mice sacrificed after 4 hours; for TrkB activation in mouse brains: via drinking water or intraperitoneal injection. The series is classed as in vivo. The protocol:
To explore whether these compounds could stimulate TrkB in vivo, 50 mg/kg of Compound I-11, Compound I-8, and Compound I-2 (2-(methylamino)-3′,4′-dihydroxy-acetophenone) were each orally administered (in saline) to 2-month-old C57BL/6J mice. The mice were sacrificed at different time points and TrkB activation in the brains of the mice was monitored by immunoblotting with anti-p-TrkB-Y-816 antibody.
To determine the minimal required dosages for Compound I-11 and Compound I-8, different doses of the compounds were each orally administered to mice. The mice were sacrificed after 4 hours, and the brain lysates were analyzed by immunoblotting with anti-p-TrkB-Y-816 antibody.
To search for orally bioactive catecholamines, catecholamine derivatives described herein were screened using primary neuronal cultures. The in vitro active compounds, Compounds I-8 and I-11, were adminstered into two to three month old C57BL/6J mice orally, intraperitoneally, and in drinking water. For oral administration, the mice were administered 0 mg (control), 5 mg, 10 mg, 20 mg, or 50 mg of Compound I-8 or Compound I-11. After 4 hours, TrkB phosphorylation in mouse brain was monitored by analyzing the brain lysates using immunoblotting with anti-p-TrkB-Y-816 antibody. The ratios of p-TrK/total TrkB were quantified (FIG. 27A). For intraperitoneal administration, 50 mg/kg of Compound I-8 or Compound I-11 were intraperitoneally injected into the mice. The brain lysates were prepared at different times (0 hr, 1 hr, 2 hr, 4 hr, and 8 hr) and were analyzed by immunoblotting with anti-p-TrkB-Y-816 antibody (FIG. 27B). Compound I-8 and Compound I-11 were dissolved in drinking water and given to mice. After 24 h, the brain lysates were prepared and analyzed by immunoblotting with anti-p-TrkB-Y-816 antibody (FIG. 27C). […] Therefore, these compounds are useful in treating various neurological or neuropsychiatric diseases as described herein.

Another series has as its system TrkB F616A knockin mice. Briefly: Kainic acid-induced neuronal apoptosis in TrkB F616A knockin mice (immunoblotting and Caspase-3 ELISA). It is filed as in vivo. Particulars: 50 mg/kg orally 2 hours before KA 20 mg/kg. The protocol: To determine whether Compound I-11 (ADPP) and Compound I-8 (DDAP) protect neurons from KA-induced apoptosis, TrkB F616A knockin mice were pretreated with inhibitor 1NMPP1 (16.6 ng/kg) 2 days before the experiment. Compound I-8 (DDAP) or Compound I-11 (ADPP) (50 mg/kg) was orally injected into the mice 2 hours before kainic acid (KA) administration (20 mg/kg). Brain lysates were analyzed by immunoblotting and Caspase-3 ELISA. […] The extent of the protective effect correlates with TrkB activation status by these compounds. Active Caspase-3 ELISA correlated with the immunoblotting results (FIG. 28B, right panel).

A further series deals with mice. Briefly: Forced swim test. The series is classed as in vivo. Particulars: for Swimming immobility: 20 mg/kg intraperitoneally, adult male mice; for Immobility time after 1NMPP1 treatment: TrkB F616A knockin mice, 1NMPP1 pretreatment. The protocol:
Accumulating evidence supports that BDNF plays an essential role in mediating antidepressants' therapeutic effects. Infusion of exogenous BDNF into hippocampus or brain stem has antidepressant-like behavioral effect. A forced swim test is broadly used for screening of potential antidepressant drugs and is widely used to measure antidepressant activity. To explore whether Compound I-11 (ADPP) and Compound I-8 (DDAP) have antidepressant effects like BDNF, forced swim tests were conducted. Adult male mice (2-3 months old, n=8) were randomly submitted, without a pre-swim, to a forced swim test of 6 minutes with immobility recorded in the last 4 minutes. Mice were injected intraperitoneally with saline, Compound I-11 (20 mg/kg), or Compound I-8 (20 mg/kg). The mice were allowed to adapt to the test room for 2 days, and the mice were placed in a clear glass cylinder with a diameter of 16 cm, half-filled with clear water at 24° C.
To assess whether the behavior responses caused by catecholamine derivatives is mediated by TrkB receptor, TrkB F616A knockin mice were utilized. The mice were subjected to saline or 1NMPP1 inhibitor pretreatment.

Series [4] deals with T2, TrkB. In words: Immunoblotting of TrkB phosphorylation in primary cortical neurons treated with catecholamines. The following applies: cortical neurons. The series is classed as cell-based. The method, then:
Primary cultured rat cortical neurons were prepared as follows. E17 rat pups were decapitated and cortex was extirpated, cross chopped and suspended by pipetting for separation in 5% fetal calf serum (FCS), 5% horse serum (HS) DMEM. The cell suspension was then centrifuged at 250×g for 5 min. This operation was repeated. Cells were seeded into polyethyleneimine-coated 10 cm^2 dishes and 12-well plates including coated-coverslips and incubated at 37° C. in 5% CO2/95% air. After 3 hours, the culture medium was changed to Neurobasal containing B-27 supplement (Invitrogen; Carlsbad, Calif.) and incubated for 4 days. For maintenance, half of the culture medium was changed to fresh Neurobasal/B27 in every 4 days. After 1 week, the dished cultured neurons were ready for use.
To explore whether monoamine neurotransmitters, including catecholamines (see, e.g., FIG. 1), could stimulate TrkB activation, hippocampal neurons were treated with 300 nM of catecholamines, serotonin, and melatonin for 30 min.

Series [5] deals with T3, TrkB F616A (Mus musculus, UniProt P15209).
T3 construct: endogenous in cells; host or cells: primary cortical neurons from TrkB F616A knock-in mice
In words: TrkB phosphorylation in TrkB F616A or TrkA F592A cortical neurons pretreated with K252a or 1NMPP1. The series is classed as cell-based, mice. The method, then:
as §1, §2

T2 sequence (Q63604 32-821): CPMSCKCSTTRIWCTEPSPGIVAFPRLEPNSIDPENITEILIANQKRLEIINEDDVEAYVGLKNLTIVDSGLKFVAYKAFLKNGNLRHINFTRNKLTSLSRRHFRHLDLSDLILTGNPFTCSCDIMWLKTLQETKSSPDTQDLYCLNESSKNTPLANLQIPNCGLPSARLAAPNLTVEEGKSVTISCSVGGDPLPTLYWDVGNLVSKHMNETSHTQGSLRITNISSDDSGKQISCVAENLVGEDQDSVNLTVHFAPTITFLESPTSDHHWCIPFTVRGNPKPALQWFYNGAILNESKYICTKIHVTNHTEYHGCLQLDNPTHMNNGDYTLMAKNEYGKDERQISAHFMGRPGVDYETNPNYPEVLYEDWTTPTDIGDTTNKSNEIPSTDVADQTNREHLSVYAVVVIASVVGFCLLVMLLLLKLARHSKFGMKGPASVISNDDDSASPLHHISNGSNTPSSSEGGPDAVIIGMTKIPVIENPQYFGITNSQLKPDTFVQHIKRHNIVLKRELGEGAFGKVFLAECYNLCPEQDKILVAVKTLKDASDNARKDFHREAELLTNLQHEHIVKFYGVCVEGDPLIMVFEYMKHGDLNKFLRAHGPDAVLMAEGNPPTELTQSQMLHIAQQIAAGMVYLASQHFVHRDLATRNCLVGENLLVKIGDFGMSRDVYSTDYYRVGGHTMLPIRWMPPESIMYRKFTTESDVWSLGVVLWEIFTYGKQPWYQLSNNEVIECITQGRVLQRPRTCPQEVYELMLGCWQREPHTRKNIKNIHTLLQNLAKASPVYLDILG
T1 sequence (P15209 32-821 F616A): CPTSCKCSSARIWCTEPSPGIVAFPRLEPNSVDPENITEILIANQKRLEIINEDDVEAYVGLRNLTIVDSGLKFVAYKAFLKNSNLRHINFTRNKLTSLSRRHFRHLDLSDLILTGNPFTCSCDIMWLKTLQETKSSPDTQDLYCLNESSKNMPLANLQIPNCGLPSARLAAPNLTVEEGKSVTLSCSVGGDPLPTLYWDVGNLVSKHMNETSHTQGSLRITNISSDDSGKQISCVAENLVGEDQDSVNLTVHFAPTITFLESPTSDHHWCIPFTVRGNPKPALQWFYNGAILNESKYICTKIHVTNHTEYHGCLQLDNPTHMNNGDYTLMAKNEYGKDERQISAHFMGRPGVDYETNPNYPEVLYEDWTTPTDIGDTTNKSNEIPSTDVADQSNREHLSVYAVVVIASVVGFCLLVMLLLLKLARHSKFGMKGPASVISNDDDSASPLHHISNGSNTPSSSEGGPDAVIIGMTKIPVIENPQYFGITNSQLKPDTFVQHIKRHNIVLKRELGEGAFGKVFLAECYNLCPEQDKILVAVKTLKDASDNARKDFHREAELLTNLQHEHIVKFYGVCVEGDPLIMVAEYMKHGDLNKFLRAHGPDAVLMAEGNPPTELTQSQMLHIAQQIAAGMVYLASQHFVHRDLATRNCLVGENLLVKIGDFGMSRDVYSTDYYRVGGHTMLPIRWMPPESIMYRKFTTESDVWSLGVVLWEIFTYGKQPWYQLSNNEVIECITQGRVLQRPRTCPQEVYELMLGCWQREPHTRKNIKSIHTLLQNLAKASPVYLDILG
T3 sequence (P15209 32-821 F616A): as above

Take `CC(N)C(=O)c1ccc(O)c(O)c1` (stereo not drawn) [Compound I-11, 2-amino-3′,4′-dihydroxy-propiophenone]: the “TrkB activation by the compound after K252a or 1NMPP1 pretreatment” value on TrkB F616A [1] was “selectively blocked by 1NMPP1 but not K252a”. Moreover, the “TrkB activation in primary cortical neurons” value on TrkB [2] was “prominently activated TrkB; also recorded: prominent stimulatory effect”. For the same compound, in the series on TrkB [3], the “Time at which TrkB activity peaked” value worked out at 8 h, the “TrkB activation in the brains of the mice” value is “potently activated TrkB”, the Oral bioavailability entry was “orally bio-available” and the “Minimal dosage required to activate TrkB” value was 10 mg/kg. Moreover, the “TrkB activation in mouse brains” value in the series with TrkB [3] is on record as “potently activate TrkB”. The “Passage through the blood brain barrier” value with TrkB [3] (orally administered, mouse brain) is “can pass through the blood brain barrier”. Besides, in the series on TrkB F616A knockin mice, the “Kainic acid (KA)-provoked neuronal cell death in mouse brain” value is given as “potently suppress; also recorded: robustly repressed”. Besides, in the series with mice, the Swimming immobility result is “significantly decreased” and the “Immobility time after 1NMPP1 treatment” value is recorded as “still active in decreasing immobility”.
In the case of `COC(=O)[C@@]1(O)C[C@H]2O[C@]1(C)n1c3ccccc3c3c4c(c5c6ccccc6n2c5c31)C(=O)NC4` [Compound K252a], at TrkB [4], the “Effect of K252a pretreatment on catecholamine-triggered TrkB tyrosine phosphorylation” value is reported as “robustly blocked”. Also, the “Effect of inhibitor on catecholamine-induced TrkB activation” value at TrkB F616A [5] is “robustly inhibited”.
Regarding `CN(C)CC(=O)c1ccc(O)c(O)c1` [Compound I-8, α-dimethylamino-3′,4′-dihydroxyacetophenone], the “TrkB activation by the compound after K252a or 1NMPP1 pretreatment” value on TrkB F616A [1] is on record as “selectively blocked by 1NMPP1 but not K252a”. At TrkB [2], the “TrkB activation in primary cortical neurons” value is reported as “prominently activated TrkB; also recorded: prominent stimulatory effect”. In the series on TrkB [3], the “Time at which TrkB activity peaked” value stood at 8 h, the “TrkB activation in the brains of the mice” value is “potently activated TrkB”, the Oral bioavailability result was “orally bio-available” and the “Minimal dosage required to activate TrkB” value turned out to be 20 mg/kg. The “TrkB activation in mouse brains” value with TrkB [3] is listed as “potently activate TrkB”. The “Passage through the blood brain barrier” value in the series on TrkB [3] (mouse, in vivo, po) is listed as “can pass through the blood brain barrier”. The “Kainic acid (KA)-provoked neuronal cell death in mouse brain” value in the series with TrkB F616A knockin mice is listed as “potently suppress; also recorded: robustly repressed”. For the same compound, in the series on mice, the Swimming immobility result is recorded as “significantly decreased” and the “Immobility time after 1NMPP1 treatment” value is “no significant effect”.
